Reference: patent US6300499A, “α1-adrenergic receptor antagonists” (Societe de Conseils de Recherches et d'Applications …, priority 1998, dated 2001)

What was measured:
α1-adrenergic receptor = test: Test of the bond to the α1-adrenergic receptor (inhibition of [3H]prazosin bond to rat cerebral cortex); type: binding, rat (male Sprague Dawley); settings: [3H]prazosin 0.2 nM, rat cerebral cortex membranes, 30 min, 25° C., pH 7.7
Protocol: The cerebral cortices of male Sprague Dawley rats are homogenized at 4° C. in Tris-HCl 50 mM pH=7.7 and centrifuged at 50,000 g for 30 minutes at 4° C. The pellets are again suspended in the same buffer and centrifuged again at 50,000 g for 30 minutes at 4° C.
The filters are rinsed three times with the same buffer at 0-4° C. and their radioactivity is tested by liquid scintillation spectrometry.
The specific bonds are obtained by subtracting the non-specific bonds (determined in the presence of 10 μM of phentolamine (Sigma Chemical Co. St. Louis Mo.)) from the total bonds. The data relative to the bonds is analyzed by computer assisted iterative non-linear regression analysis, using the Ligand program (Munson, P. J., Rodbard, D. Anal. Biochem. 107:220 (1980)).

prostatic urethrae = test: Urethra Contraction Test (inhibition of phenylephrine contraction of prostatic urethra); set-up: species or system rabbit (male New Zealand); settings: inhibition of contraction of rabbit prostatic urethra, agonist phenylephrine, compound 30 min before
Protocol: The urethrae are removed from male New Zealand rabibits, and cleaned of the surrounding connective tissues. Bands of prostatic urethrae (3 mm wide, 10-15 mm long) are suspended (1 g tension) in organ baths containing 10 ml of physiological solution (pH 7.4) at 37° C. under an atmosphere of 95% O2 /5% CO2; NaCl (118 mM); KCl (4.7 mM); CaCl2 (2.5 mM); KH2 PO4 (1.2 mM); MgSO4 (1.2 mM); NaHCO3 (25 mM); glucose (11 mM). The contractile responses are measured using force displacement transducers coupled to a Gould 8000S polygraph. A one hour period of equilibration or equalization is provided before the experiment. After equalization, the preparations are sensitized by a submaximal concentration of phenylephrine. Forty five minutes after the sensitization, a concentration-effect curve for the phenylephrine is established. In order to determine the effect of the test compounds, different preparations originating from the same animal are used in parallel. One preparation serves as a control whilst the others receive a concentration of a test compound introduced into the bath 30 minutes before the phenylephrine (Auguet, M. et al. European J. Pharmacol. 217:153 (1995)).
The dissociation constants (Kb) of the test compounds are determined using the following equation: Kb =[B]/(dose ratio--1); in which [B] is the concentration of test compound and (dose ratio) is the EC50 of phenylephrine in the presence of the test compound divided by the EC50 of the control preparation. These resultats are then expressed as the negative logarithm of Kb. The values of the EC50 are calculated from the maximum contractile response to the phenylephrine by computer analysis using a linear regression over the average tension values. The maximum contractile response of each preparation which was subjected to the test compound is determined by comparing the response provoked by the application of the sensitizing concentration of phenylephrine with the response provoked in the control preparation (which has not received the test compounds).

Row | Structure (SMILES) | Ki (α1-adrenergic receptor) [nM] | -log Kb (prostatic urethrae)
1 | Cc1ccc(C)c(N2CCN(CCCNC(=O)C(C)c3ccccc3)CC2)c1 (racemic) [Compound 38, (±)-N-[3-{4-(2,5-dimethylphenyl)-1-piperazinyl}-propyl]-α-methyl-benzeneacetamide] | 30 | 7.5
2 | COc1ccccc1N1CCN(CCCNC(=O)C2(O)c3ccccc3-c3ccccc32)CC1 [Compound 16, 9-hydroxy-N-[3-{4-(2-methoxyphenyl)-1-piperazinyl}-propyl]-9H-fluorene-9-carboxamide] | 41 | 7.8
3 | Cc1ccc(C)c(N2CCN(CCCNC(=O)C(C(=O)NCc3ccccc3)c3ccccc3)CC2)c1 (racemic) [Compound 47, (±)-N-[3-{4-(2,5-dimethylphenyl)-1-piperazinyl}-propyl]-α-benzylaminocarbonyl-benzeneacetamide] | 14 | 7.07
4 | Cc1ccc(C)c(N2CCN(CCCNC(=O)C(C)(O)c3ccccc3)CC2)c1 (racemic) [Compound 22, (±)-N-[3-{4-(2,5-dimethylphenyl)-1-piperazinyl}-propyl]-α-hydroxy-α-methyl-benzeneacetamide] | 25 | 8.3
5 | Cc1ccc(C)c(N2CCN(CCCNC(=O)C(O)(c3ccccc3)c3ccccc3)CC2)c1 [Compound 7, N-[3-{4-(2. 5-dimethylphenyl)-1-piperazinyl}-propyl]-α-hydroxy-α-phenyl-benzeneacetamide] | 30 | 8.1
6 | COc1ccccc1N1CCN(CCCNC(=O)C(c2ccccc2)c2ccccc2)CC1 [Compound 13, N-[3-{4-(2-methoxyphenyl)-1-piperazinyl}-propyl]-α-phenyl-benzeneacetamide] | 30 | 8.2
7 | Cc1ccc(C)c(N2CCN(CCCNC(=O)C(CO)c3ccccc3)CC2)c1 (racemic) [Compound 39, (±)-N-[3-{4-(2,5-dimethylphenyl)-1-piperazinyl}-propyl]-α-hydroxymethyl-benzeneacetamide] | 27 | 7.3
8 | Cc1ccc(C)c(N2CCN(CCCNC(=O)[C@](C)(O)c3ccccc3)CC2)c1 [Compound 46, R-(-)-N-[3-{4-(2,5-dimethylphenyl)-1-piperazinyl}-propyl]-α-hydroxy-α-methyl-benzeneacetamide] | 48 | 7.5
9 | COC(C(=O)NCCCN1CCN(c2cc(C)ccc2C)CC1)(c1ccccc1)c1ccccc1 [Compound 11, N-[3-{4-(2,5-dimethylphenyl)-1-piperazinyl}-propyl]-α-methoxy-α-phenyl-benzeneacetamide] | 38 | 6.9
10 | CCOc1ccccc1N1CCN(CCCNC(=O)C(O)(c2ccccc2)c2ccccc2)CC1 [Compound 8, N-[3-{4-(2-ethoxyphenyl)-1-piperazinyl}-propyl]-α-hydroxy-α-phenyl-benzeneacetamide] | 16 | 8.2
11 | O=C(NCCCN1CCN(c2ccccc2Cl)CC1)C(O)(c1ccccc1)c1ccccc1 [Compound 9, N-[3-{4-(2-chlorophenyl)-1-piperazinyl}-propyl]-α-hydroxy-α-phenyl-benzeneacetamide] | 28 | 8.1
12 | Cc1ccccc1N1CCN(CCCNC(=O)C(O)(c2ccccc2)c2ccccc2)CC1 [Compound 2, α-hydroxy-N-[3-{4-(2-methylphenyl)-1-piperazinyl}-propyl]-α-phenyl-benzeneacetamide] | 30 | 8
13 | Cc1ccc(C)c(N2CCN(CCCNC(=O)C(C)(O)c3cccc4ccccc34)CC2)c1 (racemic) [Compound 42, (±)-N-[3-{4-(2,5dimethylphenyl)-1-piperazinyl}-propyl]-α-hydroxy-α-methyl-1-naphthaleneacetamide] | 22 | 7.68
14 | Cc1ccc(C)c(N2CCN(CCCNC(=O)C(c3ccccc3)c3ccccc3)CC2)c1 [Compound 20, N-[3-{4-(2,5-dimethylphenyl)-1-piperazinyl}-propyl]-α-phenyl-benzeneacetamide] | 27 | 7.5
15 | COc1ccccc1N1CCN(CCCNC(=O)C(O)(c2ccccc2Cl)c2ccccc2Cl)CC1 [Compound 17, 2-chloro-α-(2-chlorophenyl)-α-hydroxy-N-[3-{4-(2-methoxyphenyl)-1-piperazinyl}-propyl]-α-phenyl-benzeneacetamide] | 54 | 7.7
16 | Cc1ccc(C)c(N2CCN(CCCNC(=O)C(C)(C(=O)NCc3ccccc3)c3ccccc3)CC2)c1 (racemic) [Compound 50, (±)-N-[3-{4-(2,5-dimethylphenyl)-1-piperazinyl}-propyl]-α-benzylaminocarbonyl-α-methyl-benzeneacetamide] | 50 | 6.92
17 | CCC(O)(C(=O)NCCCN1CCN(c2cc(C)ccc2C)CC1)c1ccccc1 (racemic) [Compound 27, (±)-N-[3-{4-(2,5-dimethylphenyl)-1-piperazinyl}-propyl]-2-hydroxy-2-phenyl-butyramide] | 31 | 7.6
18 | Cc1ccc(S(=O)(=O)NC(C(=O)NCCCN2CCN(c3cc(C)ccc3C)CC2)c2ccccc2)cc1 (racemic) [Compound 48, (±)-N-[3-{4-(2,5-dimethylphenyl)-1piperazinyl}-propyl]-α-(4-methylphenyl)-sulphonylamino-benzeneacetamide] | 29 | 7.02
19 | COc1ccccc1N1CCN(CCCNC(=O)C2c3ccccc3Oc3ccccc32)CC1 [Compound 15, N-[3-{4-(2-methoxyphenyl)-1-piperazinyl}-propyl]-9H-xanthene-9-carboxamide] | 27 | 7.9
20 | N#Cc1ccccc1N1CCN(CCCNC(=O)C(O)(c2ccccc2)c2ccccc2)CC1 [Compound 10, N-[3-{4-(2-cyanophenyl)-1-piperazinyl}-propyl]-α-hydroxy-α-phenyl-benzeneacetamide] | 27 | 8.2
21 | COc1ccc(C(O)(C(=O)NCCCN2CCN(c3cc(C)ccc3C)CC2)c2ccc(OC)cc2)cc1 [Compound 25, N-[3-{4-(2,5-dimethylphenyl)-1-piperazinyl}-propyl]-α-hydroxy-4-methoxy-α-(4-methoxyphenyl)-benzeneacetamide] | 29 | 7.6
22 | COc1ccccc1N1CCN(CCCNC(=O)C(O)(c2ccccc2)c2ccccc2)CC1 [Compound 14, α-hydroxy-N-[3-{4-(2-methoxyphenyl)-1-piperazinyl}-propyl]-α-phenyl-benzeneacetamide] | 27 | 7.8
